# Test results as given in PMC5640672, “Molecular mechanism of synergy between the antimicrobial peptides PGLa and magainin 2” (Scientific Reports, 2017).
# No end group written: not given here.
# Assay: Fluorescence ANTS/DPX vesicle leakage assay in POPC/POPG (3:1)
# Conditions: POPC/POPG (3:1) vesicles, result in words
# Method: The synergy was also investigated by a fluorescence ANTS/DPX leakage assay[24],[27],[30]. As described in the Methods section, leakage from POPC/POPG (3:1) vesicles was measured for 10 minutes after the addition of vesicles to a peptide solution. Leakage is expressed as percentage of the full leakage, which was obtained after addition of detergent. A synergy factor was defined to describe the enhancement of leakage of the mixture compared to the sum of the extent of leakage for each component. […] In general a synergy factor above 2 indicated synergy. […] In the leakage assay, this pore formation can be studied under more controlled conditions. Here we use two lipid compositions for the vesicles, which are mimicking bacterial membranes.
# (§1) Leakage of small unilamellar vesicles induced by the peptides was studied using a standard fluorescence assay.
# (§2) The appropriate lipids for each experiment were dissolved in CHCl3, together with 0.02 mol-% Rhodamine-PE (Rh-PE). […] This stock suspension was subjected to 10 freeze-thaw cycles and then frozen. Appropriate aliquots of the stock lipid suspension were unfrozen each day and extruded (41 times) through polycarbonate membranes with 100 nm pore size, and stored at room temperature overnight. The fluorophore and quencher outside the vesicles were removed by size exclusion chromatography using spin-columns (Pierce centrifuge column, 2 ml, Life Technologies GmbH, Darmstadt, Germany) filled with Sephacryl 100-HR (2 min, 1500 × g). For elution, a 10 mM HEPES buffer (pH 7.5) was used, containing 155 mM NaCl to balance the osmolarity. After extrusion and removal of the external dye and quencher, the lipid concentration usually decreases. Therefore, before each set of measurements a rhodamine spectrum was recorded to determine the actual concentration of lipids, which was referenced to a spectrum taken of vesicles made by sonification without any subsequent treatment.
# (§3) Fluorescence experiments were performed on a FluoroMax2 spectrofluorimeter (HORIBA Jobin Yvon, Unterhaching, Germany) equipped with a thermostated sample holder and magnetic stirrer, using an excitation wavelength of 355 nm, an emission wavelength of 508 nm, and slit widths of 5 nm. The peptide solutions were placed in elution buffer in a 1 cm standard cuvette at 30 °C. 100 s after the start of the measurement lipid vesicles were added, and the intensity of the fluorescence at 508 nm was recorded. The leakage was measured during 600 s after addition of vesicles, and the measurement was terminated after addition of Triton-X-100 (0.25% v/v), which dissolved the vesicles, and yielded 100% leakage. To determine the background signal of the vesicles themselves, several blanks were recorded per measurement set. From the leakage values of the peptides alone and of the mixture of two peptides a synergy factor SF was calculated:3 SF=L(A+B)/[L(A)+L(B)] […] Measurements were repeated three times and average values and standard deviations calculated for the leakage and the synergy factors. An average SF ≥ 2 was taken to indicate synergy.
Substance,Leakage synergy in combination with MAG2-E19K,Leakage synergy in combination with MAG2-E19K-amide
"GMASKAGAIAGKIAEVALKAL-NH2 [PGLa-K15E, PGLa charge mutant K15E]",did not show synergy,did not show synergy
"GMASKAGAIAGKIAKVALEAL-NH2 [PGLa-K19E, PGLa charge mutant K19E]",did not show synergy,did not show synergy

# Same assay, conditions: Table S3 series (charge mutants); ANTS/DPX, POPC/POPG (3:1) 100 nm vesicles, P/L about 1:160 per peptide, mixtures 1:1, 10 mM HEPES pH 7.5, 155 mM NaCl, 30 °C, 600 s, % of Triton-X-100 leakage, fluorescence, mean of n = 3
row,Substance,"Leakage, mean value [%]"
1,"GIGKFLHSAKKFGKAFVGEIMNS-NH2 [MAG2-amide, MAG2 with amidated C-terminus]",3.7
2,"GIGKFLHSAKKFGKAFVGEIMNS-OH [MAG2-WT, magainin 2, wild type antimicrobial peptide from Xenopus laevis skin, reference compound]",3.1
3,"GIGKFLHSAKKFGKAFVGQIMNS-OH [MAG2-E19Q, MAG2 charge mutant E19Q]",5.9
4,"GMASEAGAIAGKIAKVALKAL-NH2 [PGLa-K5E, PGLa charge mutant K5E]",3.5
5,"GMASKAGAIAGEIAKVALKAL-NH2 [PGLa-K12E, PGLa charge mutant K12E]",3.1
6,"GMASKAGAIAGKIAEVALKAL-NH2 [PGLa-K15E, PGLa charge mutant K15E]",2.9
7,"GMASKAGAIAGKIAKVALEAL-NH2 [PGLa-K19E, PGLa charge mutant K19E]",3.0
8,"GMASKAGAIAGKIAKVALKAL-NH2 [PGLa-WT, PGLa wild type antimicrobial peptide from Xenopus laevis skin, 15N-labeled at Ala10, reference compound]",2.3

# Same assay, conditions: Table S7 series (PGLa-to-MSI mutants); ANTS/DPX, POPC/POPG (3:1) 100 nm vesicles, P/L about 1:160 per peptide, mixtures 1:1, 10 mM HEPES pH 7.5, 155 mM NaCl, 30 °C, 600 s, % of Triton-X-100 leakage, fluorescence, mean of n = 3
row,Substance,"Leakage, mean value [%]"
1,"GIGKFLHSAKKFGKAFVGEIMNS-OH [MAG2-WT, magainin 2, wild type antimicrobial peptide from Xenopus laevis skin, reference compound]",3.2
2,"GMASKAAAIAGKIAKVALKAL-NH2 (also: 15N-labeled Ala10) [PtM-G7A, PGLa single mutant G7A]",2.1
3,"GMASKAGAIAGKIAKVALKAL-NH2 [PGLa-WT, PGLa wild type antimicrobial peptide from Xenopus laevis skin, 15N-labeled at Ala10, reference compound]",2.7
4,"GMASKIAKIAGKIAKVALKAL-NH2 [PtM-a3, PGLa to MSI-103 mutant, three amino acids converted]",3.3

# Same assay, conditions: Table S11 series (MSI-to-PGLa mutants); ANTS/DPX, POPC/POPG (3:1) 100 nm vesicles, P/L about 1:160 per peptide, mixtures 1:1, 10 mM HEPES pH 7.5, 155 mM NaCl, 30 °C, 600 s, % of Triton-X-100 leakage, fluorescence, mean of n = 3
row,Substance,"Leakage, mean value [%]"
1,"GIGKFLHSAKKFGKAFVGEIMNS-OH [MAG2-WT, magainin 2, wild type antimicrobial peptide from Xenopus laevis skin, reference compound]",3.2
2,"GMASKAGAIAGKIAKVALKAL-NH2 [PGLa-WT, PGLa wild type antimicrobial peptide from Xenopus laevis skin, 15N-labeled at Ala10, reference compound]",2.3
3,"KIAGKAAKIAGKIAKIAGKIA-NH2 [MtP-I6A, MSI-103 to PGLa single mutant I6A]",1.6
4,"KIAGKAGAIAGKIAKIAGKIA-NH2 [MtP-a3, MSI-103 triple mutant I6A, A7G, K8A]",0.9
5,"KIAGKAGAIAGKIAKIALKIA-NH2 (also: 15N-labeled Ala10) [MtP-a4, MSI-103 mutant with MtP-A3 mutations plus G18L]",2.5
6,"KIAGKAGKIAGKIAKIAGKIA-NH2 (also: 15N-labeled Ala10) [MtP-I6A-A7G, MSI-103 double mutant I6A, A7G]",0.8
7,"KIAGKIGAIAGKIAKIAGKIA-NH2 (also: 15N-labeled Ala10) [MtP-K8A-A7G, MSI-103 double mutant K8A, A7G]",1.3
8,"KIAGKIGKIAGKIAKIALKIA-NH2 (also: 15N-labeled Ala10) [MtP-A7G-G18L, MSI-103 double mutant A7G, G18L]",4.9
9,"KIASKIGKIAGKIAKIAGKIA-NH2 (also: 15N-labeled Ala10) [MtP-G4S-A7G, MSI-103 double mutant G4S, A7G]",1.4

# Same assay, conditions: Table S15 series (Gly mutants); ANTS/DPX, POPC/POPG (3:1) 100 nm vesicles, P/L about 1:160 per peptide, mixtures 1:1, 10 mM HEPES pH 7.5, 155 mM NaCl, 30 °C, 600 s, % of Triton-X-100 leakage, fluorescence, mean of n = 3
row,Substance,"Leakage, mean value [%]"
1,"GIGKFLHSAKKFGKAFVGEIMNS-OH [MAG2-WT, magainin 2, wild type antimicrobial peptide from Xenopus laevis skin, reference compound]",3.2
2,"GMASKAAAIAGKIGKVALKAL-NH2 (also: 15N-labeled Ala10) [PGLa-GS1, PGLa glycine-shift mutant with GxxG motif]",1.9
3,"GMASKAGAIA IKIAKVALKAL-NH2 [PGLa-G11I, PGLa glycine mutant G11I]",11.0
4,"GMASKAGAIAGKIAKVALKAL-NH2 [PGLa-WT, PGLa wild type antimicrobial peptide from Xenopus laevis skin, 15N-labeled at Ala10, reference compound]",2.2
5,"GMASKAIAG A IKGAKVALKAL-NH2 [PGLa-GS2, PGLa glycine-shift mutant, GxxxG on opposite helix face]",2.0

# Assay: Fluorescence ANTS/DPX vesicle leakage assay in POPE/POPG/TOCL (72:23:5)
# Conditions: Table S4 series (charge mutants), POPE/POPG/TOCL (72:23:5) 100 nm vesicles, P/L ≈ 1:30, mixtures 1:1, 10 mM HEPES pH 7.5, 155 mM NaCl, 30 °C, 600 s, % of Triton-X-100 leakage, mean of n = 3
# Text: It could be argued that POPC/POPG (3:1) is not the most appropriate model system to describe a bacterial membrane, which rarely contains PC lipids. We therefore also performed leakage in another lipid system, POPE/POPG/TOCL (72:23:5), which is a good model of E. coli membranes[45],[69],[70]. […] For all of the other mutants discussed below, leakage was also studied both in POPC/POPG as well as POPE/POPG/TOCL, but since the results (synergy or no synergy) were in all cases the same, the latter data will not be presented in the text. All leakage data in POPE/POPG/TOCL (72:23:5) for charge mutants are summarized in Supplementary Table S4.
# as §1, §2
# as §3, with “SF=L(A+B)/[L(A)+L(B)] Here, L(A) is the leakage found with peptide A alone, L(B) is the leakage found with peptide B alone, and L(A + B) is the leakage found with the mixture of peptides A and B. In all cases the P/L was the same for both peptides, alone and in the mixture, so that in the mixture the total P/L was twice that of the individual peptide measurements.” for “SF=L(A+B)/[L(A)+L(B)]”
row,Substance,"Leakage, mean value [%]"
1,"GIGKFLHSAKKFGKAFVGEIMNS-NH2 [MAG2-amide, MAG2 with amidated C-terminus]",0.8
2,"GIGKFLHSAKKFGKAFVGEIMNS-OH [MAG2-WT, magainin 2, wild type antimicrobial peptide from Xenopus laevis skin, reference compound]",1.1
3,"GIGKFLHSAKKFGKAFVGQIMNS-OH [MAG2-E19Q, MAG2 charge mutant E19Q]",1.1
4,"GMASEAGAIAGKIAKVALKAL-NH2 [PGLa-K5E, PGLa charge mutant K5E]",2.2
5,"GMASKAGAIAGEIAKVALKAL-NH2 [PGLa-K12E, PGLa charge mutant K12E]",2.3
6,"GMASKAGAIAGKIAEVALKAL-NH2 [PGLa-K15E, PGLa charge mutant K15E]",2.5
7,"GMASKAGAIAGKIAKVALEAL-NH2 [PGLa-K19E, PGLa charge mutant K19E]",1.7
8,"GMASKAGAIAGKIAKVALKAL-NH2 [PGLa-WT, PGLa wild type antimicrobial peptide from Xenopus laevis skin, 15N-labeled at Ala10, reference compound]",2.2

# Same assay, conditions: Table S8 series (PGLa-to-MSI mutants), POPE/POPG/TOCL (72:23:5) 100 nm vesicles, P/L ≈ 1:30, mixtures 1:1, 10 mM HEPES pH 7.5, 155 mM NaCl, 30 °C, 600 s, % of Triton-X-100 leakage, mean of n = 3
row,Substance,"Leakage, mean value [%]"
1,"GIGKFLHSAKKFGKAFVGEIMNS-OH [MAG2-WT, magainin 2, wild type antimicrobial peptide from Xenopus laevis skin, reference compound]",1.2
2,"GMASKAAAIAGKIAKVALKAL-NH2 (also: 15N-labeled Ala10) [PtM-G7A, PGLa single mutant G7A]",3.7
3,"GMASKAGAIAGKIAKVALKAL-NH2 [PGLa-WT, PGLa wild type antimicrobial peptide from Xenopus laevis skin, 15N-labeled at Ala10, reference compound]",2.2
4,"GMASKIAKIAGKIAKVALKAL-NH2 [PtM-a3, PGLa to MSI-103 mutant, three amino acids converted]",9.1

# Same assay, conditions: Table S12 series (MSI-to-PGLa mutants), POPE/POPG/TOCL (72:23:5) 100 nm vesicles, P/L ≈ 1:30, mixtures 1:1, 10 mM HEPES pH 7.5, 155 mM NaCl, 30 °C, 600 s, % of Triton-X-100 leakage, mean of n = 3
row,Substance,"Leakage, mean value [%]"
1,"GIGKFLHSAKKFGKAFVGEIMNS-OH [MAG2-WT, magainin 2, wild type antimicrobial peptide from Xenopus laevis skin, reference compound]",1.0
2,"GMASKAGAIAGKIAKVALKAL-NH2 [PGLa-WT, PGLa wild type antimicrobial peptide from Xenopus laevis skin, 15N-labeled at Ala10, reference compound]",2.1
3,"KIAGKAAKIAGKIAKIAGKIA-NH2 [MtP-I6A, MSI-103 to PGLa single mutant I6A]",4.8
4,"KIAGKAGAIAGKIAKIAGKIA-NH2 [MtP-a3, MSI-103 triple mutant I6A, A7G, K8A]",0.9
5,"KIAGKAGAIAGKIAKIALKIA-NH2 (also: 15N-labeled Ala10) [MtP-a4, MSI-103 mutant with MtP-A3 mutations plus G18L]",2.6

# Same assay, conditions: Table S16 series (Gly mutants), POPE/POPG/TOCL (72:23:5) 100 nm vesicles, P/L ≈ 1:30, mixtures 1:1, 10 mM HEPES pH 7.5, 155 mM NaCl, 30 °C, 600 s, % of Triton-X-100 leakage, mean of n = 3
row,Substance,"Leakage, mean value [%]"
1,"GIGKFLHSAKKFGKAFVGEIMNS-OH [MAG2-WT, magainin 2, wild type antimicrobial peptide from Xenopus laevis skin, reference compound]",1.1
2,"GMASKAAAIAGKIGKVALKAL-NH2 (also: 15N-labeled Ala10) [PGLa-GS1, PGLa glycine-shift mutant with GxxG motif]",2.7
3,"GMASKAGAIA IKIAKVALKAL-NH2 [PGLa-G11I, PGLa glycine mutant G11I]",11.4
4,"GMASKAGAIAGKIAKVALKAL-NH2 [PGLa-WT, PGLa wild type antimicrobial peptide from Xenopus laevis skin, 15N-labeled at Ala10, reference compound]",2.3
5,"GMASKAIAG A IKGAKVALKAL-NH2 [PGLa-GS2, PGLa glycine-shift mutant, GxxxG on opposite helix face]",2.2
